Experiment: Phase I study NCT02841540: treatment-related adverse events and dose-limiting toxicities
Format: in vivo, human
Source text: Patients were enrolled using a conventional 3+3 dose escalation phase I design, with escalations based on a modified Fibonacci sequence scheme (Storer Biometrics. 1989;45(3):925-937). Dose escalations continued until a dose level at which ≥2 patients of the 3-6 enrolled experienced a dose-limiting toxicity (DLT). Maximally tolerated dose (MTD) was defined as the highest dose at which no more than 1 out of 6 patients experienced a DLT. DLTs were defined as any of the following: any Grade 3 or greater study drug-related non-hematologic toxicity except for Grade 3 nausea, vomiting, fatigue, or diarrhea that resolved to Grade 1 or less within 1 week; failure to administer at least 70% of the protocol-specific dose; or prolonged myelosuppression with the persistence of Grade 4 cytopenia in the absence of persistent leukemia or blast increase 21 or more days after suspending dosing. DLTs were assessed during the first 28 days using National Cancer Institute (NCI) Common Toxicity Criteria for Adverse Events (CTCAE) version 4.03.
The primary endpoints measured included occurrence of DLTs, the type and frequency of treatment-emergent adverse events (TEAEs), and serious adverse events (SAEs). Key secondary endpoints included drug pharmacokinetics (PK) and preliminary antitumor activity, such as the overall response rate (ORR), effect of drug therapy on transfusion requirements, and overall survival (OS). Biomarker analyses and drug pharmacodynamics (PD) were included as exploratory endpoints. […] In addition, a second schedule (Schedule II) of 21 days on therapy and a rest of 7 days without therapy was explored. […] However, when limited clinical activity was observed on Schedule I, Schedule II was introduced to test whether more prolonged spliceosome modulation would lead to higher clinical activity. Each treatment cycle was 28 days in length. Patients could continue treatment until disease progression or development of unacceptable toxicity.
Eligibility criteria included normal vitamin A levels and visual acuity that corrected to 20/40 unless a cataract was present. Ophthalmologic evaluation, including fundoscopic imaging and visual evoked potentials, was performed during study screening and periodically throughout the duration of the trial.

Question: For `C/C(=C\C=C\[C@@H](C)c1ccccn1)[C@H]1OC(=O)C[C@H](O)CC[C@@](C)(O)[C@@H](OC(=O)N2CCN(C)CC2)/C=C/[C@@H]1C` [Compound 1, (2S,3S,4E,6S,7R,10R)-7,10-dihydroxy-3,7-dimethyl-12-oxo-2-[(2E,4E,6R)-6-(pyridine-2-yl)hepta-2,4-dien-2-yl]oxacyclododec-4-en-6-yl-4-methylpiperazine-1-carboxylate], which “Any TEAE (treatment-related, all grades)” value (Schedule II, 7 mg QD, N = 5) is on record?
Answer: 1 (20) n (%)

Question: What about the “Diarrhea (treatment-related TEAE, all grades)” value (Schedule II, 7 mg QD, N = 5) of the same compound?
Answer: 1 (20) n (%)

Question: What about the “Dysgeusia (treatment-related TEAE, all grades)” value (Schedule II, 7 mg QD, N = 5) of the same compound?
Answer: 0 n (%)

Question: And the “ECG QTcF prolonged (treatment-related TEAE, all grades)” value (Schedule II, 7 mg QD, N = 5)?
Answer: 0 n (%)

Question: And the “Fatigue (treatment-related TEAE, all grades)” value (Schedule II, 7 mg QD, N = 5)?
Answer: 0 n (%)

Question: What about the “Hypophosphatemia (treatment-related TEAE, all grades)” value (Schedule II, 7 mg QD, N = 5) of the same compound?
Answer: 0 n (%)

Question: What about the “Nausea (treatment-related TEAE, all grades)” value (Schedule II, 7 mg QD, N = 5) of the same compound?
Answer: 0 n (%)

Question: What about the “Vomiting (treatment-related TEAE, all grades)” value (Schedule II, 7 mg QD, N = 5) of the same compound?
Answer: 0 n (%)

Question: And the “dose dependency of treatment related AEs” value (Schedule II, 7 mg-20 mg)?
Answer: dose dependency trend

Question: What about the “Any TEAE (treatment-related, all grades)” value (Schedule II, 12 mg QD, N = 5) of the same compound?
Answer: 4 (80) n (%)

Question: What about the “Diarrhea (treatment-related TEAE, all grades)” value (Schedule II, 12 mg QD, N = 5) of the same compound?
Answer: 1 (20) n (%)

Question: And the “Dysgeusia (treatment-related TEAE, all grades)” value (Schedule II, 12 mg QD, N = 5)?
Answer: 1 (20) n (%)

Question: What about the “ECG QTcF prolonged (treatment-related TEAE, all grades)” value (Schedule II, 12 mg QD, N = 5) of the same compound?
Answer: 0 n (%)

Question: And the “Fatigue (treatment-related TEAE, all grades)” value (Schedule II, 12 mg QD, N = 5)?
Answer: 1 (20) n (%)

Question: And the “Hypophosphatemia (treatment-related TEAE, all grades)” value (Schedule II, 12 mg QD, N = 5)?
Answer: 2 (40) n (%)

Question: And the “Nausea (treatment-related TEAE, all grades)” value (Schedule II, 12 mg QD, N = 5)?
Answer: 1 (20) n (%)

Question: And the “Vomiting (treatment-related TEAE, all grades)” value (Schedule II, 12 mg QD, N = 5)?
Answer: 0 n (%)

Question: And the “patients with DLT grade 3 sinus bradycardia” value (Schedule II, 14 mg)?
Answer: 1 of 5

Question: And the “Any TEAE (treatment-related, all grades)” value (Schedule II, 14 mg QD, N = 5)?
Answer: 4 (80) n (%)

Question: What about the “Diarrhea (treatment-related TEAE, all grades)” value (Schedule II, 14 mg QD, N = 5) of the same compound?
Answer: 2 (40) n (%)

Question: And the “Dysgeusia (treatment-related TEAE, all grades)” value (Schedule II, 14 mg QD, N = 5)?
Answer: 0 n (%)

Question: And the “ECG QTcF prolonged (treatment-related TEAE, all grades)” value (Schedule II, 14 mg QD, N = 5)?
Answer: 1 (20) n (%)

Question: What about the “Fatigue (treatment-related TEAE, all grades)” value (Schedule II, 14 mg QD, N = 5) of the same compound?
Answer: 0 n (%)

Question: What about the “Hypophosphatemia (treatment-related TEAE, all grades)” value (Schedule II, 14 mg QD, N = 5) of the same compound?
Answer: 0 n (%)

Question: What about the “Nausea (treatment-related TEAE, all grades)” value (Schedule II, 14 mg QD, N = 5) of the same compound?
Answer: 0 n (%)

Question: And the “Vomiting (treatment-related TEAE, all grades)” value (Schedule II, 14 mg QD, N = 5)?
Answer: 1 (20) n (%)

Question: And the “patients with DLTs (Grade 3 QTc prolongation; Grade 3 nausea)” value (Schedule II, 20 mg)?
Answer: 2 of 4

Question: What about the “subjects reporting grade 3 AEs” value (Schedule II, 20 mg) of the same compound?
Answer: 3 of the 4

Question: What about the “Any TEAE (treatment-related, all grades)” value (Schedule II, 20 mg QD, N = 4) of the same compound?
Answer: 4 (100) n (%)

Question: What about the “Diarrhea (treatment-related TEAE, all grades)” value (Schedule II, 20 mg QD, N = 4) of the same compound?
Answer: 4 (100) n (%)

Question: And the “Dysgeusia (treatment-related TEAE, all grades)” value (Schedule II, 20 mg QD, N = 4)?
Answer: 1 (25) n (%)

Question: What about the “ECG QTcF prolonged (treatment-related TEAE, all grades)” value (Schedule II, 20 mg QD, N = 4) of the same compound?
Answer: 2 (50) n (%)

Question: And the “Fatigue (treatment-related TEAE, all grades)” value (Schedule II, 20 mg QD, N = 4)?
Answer: 1 (25) n (%)

Question: What about the “Hypophosphatemia (treatment-related TEAE, all grades)” value (Schedule II, 20 mg QD, N = 4) of the same compound?
Answer: 0 n (%)

Question: What about the “Nausea (treatment-related TEAE, all grades)” value (Schedule II, 20 mg QD, N = 4) of the same compound?
Answer: 2 (50) n (%)

Question: And the “Vomiting (treatment-related TEAE, all grades)” value (Schedule II, 20 mg QD, N = 4)?
Answer: 3 (75) n (%)

Question: And the “Anemia (Grade 3 or 4 treatment-related TEAE)” value (Schedule II, N = 19)?
Answer: 0 n (%)

Question: What about the “ECG QTcF prolonged (Grade 3 or 4 treatment-related TEAE)” value (Schedule II, N = 19) of the same compound?
Answer: 1 (5) n (%)

Question: What about the “Fatigue (Grade 3 or 4 treatment-related TEAE)” value (Schedule II, N = 19) of the same compound?
Answer: 1 (5) n (%)

Question: What about the “Hypophosphatemia (Grade 3 or 4 treatment-related TEAE)” value (Schedule II, N = 19) of the same compound?
Answer: 1 (5) n (%)

Question: What about the “Nausea (Grade 3 or 4 treatment-related TEAE)” value (Schedule II, N = 19) of the same compound?
Answer: 1 (5) n (%)

Question: What about the “Platelet count decreased (Grade 3 or 4 treatment-related TEAE)” value (Schedule II, N = 19) of the same compound?
Answer: 1 (5) n (%)

Question: And the “Sinus bradycardia (Grade 3 or 4 treatment-related TEAE)” value (Schedule II, N = 19)?
Answer: 1 (5) n (%)

Question: What about the “Any TEAE (treatment-related, all grades)” value (Schedule II, Total, N = 19) of the same compound?
Answer: 13 (68) n (%)

Question: What about the “Diarrhea (treatment-related TEAE, all grades)” value (Schedule II, Total, N = 19) of the same compound?
Answer: 8 (42) n (%)

Question: And the “Dysgeusia (treatment-related TEAE, all grades)” value (Schedule II, Total, N = 19)?
Answer: 2 (11) n (%)

Question: What about the “ECG QTcF prolonged (treatment-related TEAE, all grades)” value (Schedule II, Total, N = 19) of the same compound?
Answer: 3 (16) n (%)

Question: What about the “Fatigue (treatment-related TEAE, all grades)” value (Schedule II, Total, N = 19) of the same compound?
Answer: 2 (11) n (%)

Question: And the “Hypophosphatemia (treatment-related TEAE, all grades)” value (Schedule II, Total, N = 19)?
Answer: 2 (11) n (%)

Question: And the “Nausea (treatment-related TEAE, all grades)” value (Schedule II, Total, N = 19)?
Answer: 3 (16) n (%)

Question: And the “Vomiting (treatment-related TEAE, all grades)” value (Schedule II, Total, N = 19)?
Answer: 4 (21) n (%)

Question: What about the “QTcF (Fridericia method) prolongation, treatment-related TEAE” value (Schedule II, all patients) of the same compound?
Answer: 16%

Question: What about the “diarrhea, treatment-related TEAE” value (Schedule II, all patients) of the same compound?
Answer: 42%

Question: And the “dysgeusia, treatment-related TEAE” value (Schedule II, all patients)?
Answer: 11%

Question: What about the “fatigue, treatment-related TEAE” value (Schedule II, all patients) of the same compound?
Answer: 11%

Question: What about the “hypophosphatemia, treatment-related TEAE” value (Schedule II, all patients) of the same compound?
Answer: 11%

Question: And the “nausea, treatment-related TEAE” value (Schedule II, all patients)?
Answer: 16%

Question: And the “vomiting, treatment-related TEAE” value (Schedule II, all patients)?
Answer: 21%

Question: And the “subjects with treatment related AEs (all grades)” value (Schedule II, highest dose level tested)?
Answer: 100%

Question: And the “subjects with treatment related AEs (all grades)” value (Schedule II, lowest dose level tested)?
Answer: 20%

Question: And the “patients who experienced an AE characterized as a DLT” value (both schedules)?
Answer: 6 patients

Question: And the “subjects reporting treatment related AEs (all grades)” value (both schedules)?
Answer: 63 subjects

Question: What about the “subjects who reported grade 3 treatment related AEs” value (both schedules) of the same compound?
Answer: 12 subjects

Question: What about the ocular adverse event (in vivo) of the same compound?
Answer: One event of Grade 3 ocular papilledema was reported, without loss in visual acuity

Source: patent US20240043928A1, “BIOMARKERS FOR MYELODYSPLASTIC SYNDROME (MDS) AND METHODS OF USING THE SAME” (Eisai R&D Management Co., Ltd., priority 2020, published 2024)
